Measurements: PubChem BioAssay AID493101 (Broad Institute, 2011)
Inconclusive results are not listed. The source made the active and inactive calls.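 How the source made its calls: active means luminescence falls with dose and the fitted half-maximal concentration is within ten times the top dose in every run; inconclusive means runs disagree, or a flat moderate drop, or a poor fit; inactive means every run inactive, including rises or flat response.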

Tested on: Vibrio harveyi JMH597 AI-2 quorum sensing luminescence, 9 h
Experiment: LuxS/LuxPQ-dependent luminescence inhibition, V. harveyi – dry powder, set 4, dose response (AID 493101)
Conditions: not given

Row | SMILES | AC50 [µM]
1 | O=S(=O)(Nc1ccccn1)c1ccc(Oc2ccccc2)cc1 | 7.34
2 | Cn1cnc(S(=O)(=O)Nc2ccc(OC(F)(F)F)cc2)c1 | 8.62
3 | CCc1ccc(-c2ccc(C(=O)O)n2C)cc1 | 5.52
4 | C=Cn1c(C(=O)O)ccc1-c1ccc(CC)cc1 | 3.22
5 | O=C1C=C/C(=C/Br)O1 | 4.64
6 | O=S(=O)(Nc1cccnc1)c1ccc(Oc2ccccc2)cc1 | 0.766

Tested on: not listed separately
Experiment: as above
Conditions: Vibrio harveyi JMH597 AI-2 quorum sensing luminescence, 9 h; at 16 µM (top of the series)

Row | SMILES | activity change, negative = inhibition
7 | COc1ccccc1NS(=O)(=O)c1cn(C)cn1 | -5.36% (inactive)
8 | CCc1ccc(-c2ccc(C(=O)O)n2CC)cc1 | 2.4% (inactive)
9 | Cc1ccccc1NS(=O)(=O)c1cn(C)cn1 | -1.44% (inactive)
10 | CN(C)C(=O)c1ccccc1NS(=O)(=O)c1cn(C)cn1 | 0.404% (inactive)
11 | Cn1cnc(S(=O)(=O)Nc2ccccc2Cl)c1 | 3.87% (inactive)
12 | Cn1cnc(S(=O)(=O)Nc2ccccc2F)c1 | 2.07% (inactive)
13 | CC(=O)Nc1ccccc1NS(=O)(=O)c1cn(C)cn1 | 2.17% (inactive)
